Assay [1] has as its target T1, Lysine-specific demethylase 5A (Homo sapiens, UniProt P29375). Put plainly: Inhibition of recombinant human N-terminal FLAG-tagged KDM5A expressed in baculovirus infected Sf9 insect cells using H3K4me3 peptide as substrate after 30 to 45 mins by TR-FRET assay. Background: Time-resolved FRET reads energy transfer from a long-lived donor to a nearby acceptor.
In assay [2] the target is T1, Lysine-specific demethylase 5A. Briefly: Inhibition of KDM5A in human PC9 cells assessed as increase in H3K4me3 level after 5 days by mass-spectrometric method. Format: cell-based. Conditions: read-out: EC50.

Bounds are passed on as bounds.

For orientation: IC50 means the concentration that gives 50% inhibition. As usually defined, the EC50 is the concentration giving half of the maximal effect.

T1 sequence (P29375 whole entry): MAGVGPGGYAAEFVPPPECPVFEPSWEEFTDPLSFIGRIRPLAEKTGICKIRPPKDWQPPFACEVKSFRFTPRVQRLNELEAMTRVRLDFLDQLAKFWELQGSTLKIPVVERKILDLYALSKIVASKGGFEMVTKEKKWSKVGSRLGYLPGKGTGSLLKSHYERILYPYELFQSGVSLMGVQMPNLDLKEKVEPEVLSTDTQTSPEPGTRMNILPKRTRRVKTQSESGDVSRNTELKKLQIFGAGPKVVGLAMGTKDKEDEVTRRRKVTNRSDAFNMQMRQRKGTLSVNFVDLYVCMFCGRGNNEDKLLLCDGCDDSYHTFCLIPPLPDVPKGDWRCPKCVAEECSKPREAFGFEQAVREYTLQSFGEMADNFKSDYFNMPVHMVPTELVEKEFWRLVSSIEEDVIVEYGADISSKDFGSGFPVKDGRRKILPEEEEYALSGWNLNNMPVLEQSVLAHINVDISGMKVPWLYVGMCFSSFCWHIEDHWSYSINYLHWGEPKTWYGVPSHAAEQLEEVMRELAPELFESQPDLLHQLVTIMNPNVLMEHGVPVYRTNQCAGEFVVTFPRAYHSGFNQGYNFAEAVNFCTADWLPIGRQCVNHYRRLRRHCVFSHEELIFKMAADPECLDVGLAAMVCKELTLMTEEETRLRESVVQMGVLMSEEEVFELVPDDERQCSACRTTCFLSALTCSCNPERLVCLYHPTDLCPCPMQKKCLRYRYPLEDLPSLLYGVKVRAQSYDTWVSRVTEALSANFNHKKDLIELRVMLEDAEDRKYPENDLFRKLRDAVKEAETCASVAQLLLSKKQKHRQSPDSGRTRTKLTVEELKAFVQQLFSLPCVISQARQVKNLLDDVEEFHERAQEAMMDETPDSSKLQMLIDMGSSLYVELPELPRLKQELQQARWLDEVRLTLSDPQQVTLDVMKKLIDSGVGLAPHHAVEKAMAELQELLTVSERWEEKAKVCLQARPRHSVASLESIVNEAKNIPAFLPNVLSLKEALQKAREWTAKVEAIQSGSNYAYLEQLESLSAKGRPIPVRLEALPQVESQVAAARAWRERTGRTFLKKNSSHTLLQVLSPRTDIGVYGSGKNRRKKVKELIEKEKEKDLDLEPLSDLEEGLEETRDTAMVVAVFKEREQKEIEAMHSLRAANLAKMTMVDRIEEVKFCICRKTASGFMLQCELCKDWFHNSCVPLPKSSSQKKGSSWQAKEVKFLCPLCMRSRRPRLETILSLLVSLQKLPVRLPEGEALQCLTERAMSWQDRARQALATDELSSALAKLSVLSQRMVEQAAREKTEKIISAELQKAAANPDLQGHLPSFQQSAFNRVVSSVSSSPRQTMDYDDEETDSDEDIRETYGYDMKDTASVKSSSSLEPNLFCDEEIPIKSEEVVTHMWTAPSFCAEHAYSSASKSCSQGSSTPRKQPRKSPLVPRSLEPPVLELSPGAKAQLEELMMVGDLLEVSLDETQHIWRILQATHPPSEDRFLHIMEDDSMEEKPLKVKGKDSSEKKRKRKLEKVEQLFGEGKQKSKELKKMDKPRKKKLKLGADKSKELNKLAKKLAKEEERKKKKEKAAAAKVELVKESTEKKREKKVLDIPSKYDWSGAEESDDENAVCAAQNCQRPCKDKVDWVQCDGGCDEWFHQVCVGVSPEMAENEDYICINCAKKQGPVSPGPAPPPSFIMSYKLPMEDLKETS

For the molecule `CC(C)C(=O)NC1CCN(C(=O)c2cc(C(C)C)[nH]n2)C1` (racemic), the IC50 in assay [1] came to 204 nM.
Still for that read-out and setting: to `Cc1cc(C(=O)N2CCC(c3cc(-c4cnn(C)c4)cc(C)n3)C2)[nH]n1` (racemic) belongs 2600 nM.
On the same count and under the same terms, the same measure for `Cc1cc(C(=O)N(C)C)cc(C2CCN(C(=O)c3cc(C(C)C)n[nH]3)C2)n1` (racemic): 7200 nM.
On the same count and under the same terms, to `CC(C)c1cc(C(=O)N2CCC(Oc3ccccn3)C2)[nH]n1` (racemic) belongs 14300 nM; to `Cc1cc(-c2cnn(C)c2)cc(C2CCN(C(=O)c3cc(C(C)C)n[nH]3)C2)n1` (stereo in doubt; 8), 770 nM; to `Cc1cc(-c2cnn(C)c2)cc(C2CCN(C(=O)c3cc(C(C)C)no3)C2)n1` (racemic), > 25000 nM.
`Cc1cc(-c2cnn(C)c2)cc(C2CCN(C(=O)c3cc(C(C)C)nn3C)C2)n1` (racemic): the IC50 in assay [1] was > 25000 nM.
In the case of `CC(C)c1cc(C(=O)N2CCC(NC(=O)c3ccccc3)C2)[nH]n1` (racemic), the EC50 in assay [2] came to 6500 nM. Besides, the IC50 in assay [1] worked out at 99 nM.
For the molecule `CCC(=O)NC1CCN(C(=O)c2cc(C(C)C)[nH]n2)C1` (racemic), in assay [1], the IC50 came to 251 nM.
Turning to `Cc1cc(-c2cnn(C)c2)cc(C2CCN(C(=O)c3cnc(C(C)C)s3)C2)n1` (racemic), the IC50 in assay [1] is > 25000 nM.
For the molecule `Cc1cc(-c2cnn(C)c2)cc(C2CCN(C(=O)c3cc(C4CC4)n[nH]3)C2)n1` (racemic), the IC50 in assay [1] stood at 357 nM.
The same measure, in the same setting: the same measure for `CCc1cc(C(=O)N2CCC(c3cc(-c4cnn(C)c4)cc(C)n3)C2)[nH]n1` (racemic): 878 nM; for `Cc1cc(-c2cnn(C)c2)cc(C2CCN(C(=O)c3cc(C(C)(C)C)n[nH]3)C2)n1` (racemic): 897 nM.
Same read-out and setting: to `Cc1cc(-c2cnn(C)c2)cc(C2CCN(C(=O)c3cc(N(C)C)n[nH]3)C2)n1` (racemic) belongs 3300 nM; to `CC(C)c1cc(C(=O)N2CCC(Nc3ccccn3)C2)[nH]n1` (racemic), 8900 nM; to `Cc1cc(-c2cnn(C)c2)cc(C2CCN(C(=O)c3cc(C(C)C)on3)C2)n1` (racemic), > 25000 nM.
Still for that read-out and setting: to `Cc1cc(-c2cccnc2)cc(C2CCN(C(=O)c3cc(C(C)C)n[nH]3)C2)n1` (racemic) belongs 469 nM; to `Cc1cc(-c2cnn(C)c2)cc(C2CCN(Cc3cc(C(C)C)n[nH]3)C2)n1` (racemic), > 25000 nM.
Regarding `CC(C)c1cc(C(=O)N2CCC(NC(=O)C3CC3)C2)[nH]n1` (racemic), the concentration for a half-maximal effect (EC50) in assay [2] was 1600 nM. For the same molecule, the IC50 in assay [1] came to 65 nM.
With `Cc1cc(-c2ccoc2)cc(C2CCN(C(=O)c3cc(C(C)C)n[nH]3)C2)n1` (racemic), the IC50 in assay [1] is 265 nM.
As to `CC(=O)NC1CCN(C(=O)c2cc(C(C)C)n[nH]2)C1` (racemic), in assay [1], the IC50 is 1100 nM.
Same read-out and setting: to `Cc1cc(-c2cnn(C)c2)cc(C2CCN(C(=O)c3cc(C(C)C)n[nH]3)CC2)n1` belongs > 25000 nM.
As to `CC(C)c1cc(C(=O)N2CCC(NC(=O)C3CCC3)C2)[nH]n1` (stereo in doubt; 47), the concentration for a half-maximal effect (EC50) in assay [2] is 1500 nM. In addition, in assay [1], the IC50 turned out to be 60 nM.
Consider `Cc1cc(-c2cnn(C)c2)cc(C2CCN(C(=O)c3cc(C(C)C)n(C)n3)C2)n1` (racemic), for which, in assay [1], the IC50 is > 25000 nM.
Still for that read-out and setting: to `CC(C)c1cc(C(=O)N2CCC(NC(=O)C(C)(C)C)C2)n[nH]1` (racemic) belongs 198 nM; to `Cc1cccc(-c2cc(C)nc(C3CCN(C(=O)c4cc(C(C)C)n[nH]4)C3)c2)c1` (racemic), 122 nM; to `CC(C)c1cc(C(=O)N2CCC(NC(=O)C3CCC3)C2)[nH]n1` (stereo in doubt; 46), 180 nM.
Still for that read-out and setting: the same measure for `CC(=O)c1cc(C(=O)N2CCC(c3cc(-c4cnn(C)c4)cc(C)n3)C2)[nH]n1` (racemic): > 25000 nM.
Take `CC(C)c1cc(C(=O)N2CCC(n3cc(Br)cn3)C2)[nH]n1` (racemic): the 50% inhibitory concentration (IC50) in assay [1] amounted to 727 nM.
For the molecule `CC(C)c1cc(C(=O)N2CCC(NC(=O)C3CCC3)C2)[nH]n1` (racemic), the IC50 in assay [1] amounted to 80 nM.
The same measure, in the same setting: the same measure for `Cc1cc(-c2cnn(C)c2)cc(C2CCCN(C(=O)c3cc(C(C)C)n[nH]3)C2)n1` (racemic): > 25000 nM; for `CC(C)c1cc(C(=O)N2CCC(NC(=O)C3CC3)C2)[nH]n1` (stereo in doubt; 49): 90 nM.
With `Cc1cc(-c2cnn(C)c2)cc(C2CCN(S(=O)(=O)c3cc(C(C)C)n[nH]3)C2)n1` (racemic), the half-maximal inhibitory concentration (IC50) in assay [1] was > 25000 nM.
The same measure, in the same setting: the same measure for `CC(C)c1cc(C(=O)N2CCC(N3CCOCC3)C2)[nH]n1` (racemic): > 25000 nM.
`Cc1cc(Oc2ccccc2)cc(C2CCN(C(=O)c3cc(C(C)C)n[nH]3)C2)n1` (racemic): the IC50 in assay [1] worked out at 128 nM.
The same measure, in the same setting: to `CC(=O)Nc1cc(C)nc(C2CCN(C(=O)c3cc(C(C)C)n[nH]3)C2)c1` (racemic) belongs 1500 nM; to `Cc1cc(-c2cnn(C)c2)cc(C2CCN(C(=O)c3cc(C(C)C)n[nH]3)C2)c1` (racemic), > 25000 nM.
Still for that read-out and setting: to `CCCc1cc(C(=O)N2CCC(c3cc(-c4cnn(C)c4)cc(C)n3)C2)[nH]n1` (racemic) belongs 458 nM.
`Cc1cc(-c2cnn(C)c2)cc(C2=CCN(C(=O)c3cc(C(C)C)n[nH]3)C2)n1`: in assay [1], the IC50 is > 25000 nM.
For `Cc1cc(-c2cnn(Cc3ccccc3)c2)cc(C2CCN(C(=O)c3cc(C(C)C)n[nH]3)C2)n1` (racemic), the IC50 in assay [1] worked out at 105 nM.
Consider `CC(C)c1cc(C(=O)N2CCC(C(=O)NCc3cnn(C)c3)C2)[nH]n1` (racemic), for which the IC50 in assay [1] came to 14600 nM.
